Source: patent US20240025922A1, “TETRAHYDROPYRIDO[3,4-d]PYRIMIDINES AS HPK1 INHIBITORS” (Merck Patent GmbH, priority 2022, published 2024)

The molecules below were run against full-length human HPK1 (MAP4K1) (Homo sapiens (Human), UniProt Q92918) (assay: HPK1 Kinase Assay (Biochemical Assay), ADP-Glo). Settings: GST-HPK1 3.2 nM, 10 μM ATP, MBP substrate, read-out: HPK1 enzymatic IC50.
Excerpt: HPK1 Kinase Assay (Biochemical Assay).
A recombinant fusion protein consisting of full-length human HPK1 (MAP4K1) with an N-terminal Glutatione S-transferase (GST) tag was produced in insect cells Sf21 using the baculovirus expression system. GST-HPK1 protein was purified from cell lysates by glutathione Sepharose affinity chromatography. The assay is run in three continuous steps: 1) the HPK1 enzymatic kinase reaction, 2) an ATP depletion, and 3) the ADP detection, the steps 2 and 3 are performed with ADP-Glo™ Kinase Assay kit from Promega (V9101). Test compounds were prepared by 10-point serial dilution in dimethyl sulfoxide (DMSO) and 100 nL of each dilution was spotted onto a 384-well Optiplate (Perkin Elmer and Cat #6007299) by Labcyte Echo. 5 μL kinase reaction buffer (0.02% Brij-35, 2 mM DTT, 50 mM HEPES pH 7.5, MgCl2 10 mM, BSA 0.01% and O-glycerophosphate 12.5 mM) containing HPK1 (3.2 nM) enzyme was transferred to each well and incubated for 15 minutes at room temperature at 60% humidity. The enzymatic reaction was started by adding 5 μl of Start-Mix (10 μM ATP and 3.235 μM MBP). After 120 minutes, the reaction was stopped by adding 5 μL of ADP-Glo reagent (Promega, V9101) and incubating for 40 min. in the dark at 23° C. To determine the level of ADP, 10 μl ADP-Glo Detection solution was added and incubated for 1 hour at 23° C. in the dark. The plate was transferred to a Perkin Elmer EnVision (2104 Multilabel Reader) for luminescence detection and percent inhibition activity and IC50 value were determined using Genedata Screener.

Sequence of full-length human HPK1 (MAP4K1) (Q92918 whole entry): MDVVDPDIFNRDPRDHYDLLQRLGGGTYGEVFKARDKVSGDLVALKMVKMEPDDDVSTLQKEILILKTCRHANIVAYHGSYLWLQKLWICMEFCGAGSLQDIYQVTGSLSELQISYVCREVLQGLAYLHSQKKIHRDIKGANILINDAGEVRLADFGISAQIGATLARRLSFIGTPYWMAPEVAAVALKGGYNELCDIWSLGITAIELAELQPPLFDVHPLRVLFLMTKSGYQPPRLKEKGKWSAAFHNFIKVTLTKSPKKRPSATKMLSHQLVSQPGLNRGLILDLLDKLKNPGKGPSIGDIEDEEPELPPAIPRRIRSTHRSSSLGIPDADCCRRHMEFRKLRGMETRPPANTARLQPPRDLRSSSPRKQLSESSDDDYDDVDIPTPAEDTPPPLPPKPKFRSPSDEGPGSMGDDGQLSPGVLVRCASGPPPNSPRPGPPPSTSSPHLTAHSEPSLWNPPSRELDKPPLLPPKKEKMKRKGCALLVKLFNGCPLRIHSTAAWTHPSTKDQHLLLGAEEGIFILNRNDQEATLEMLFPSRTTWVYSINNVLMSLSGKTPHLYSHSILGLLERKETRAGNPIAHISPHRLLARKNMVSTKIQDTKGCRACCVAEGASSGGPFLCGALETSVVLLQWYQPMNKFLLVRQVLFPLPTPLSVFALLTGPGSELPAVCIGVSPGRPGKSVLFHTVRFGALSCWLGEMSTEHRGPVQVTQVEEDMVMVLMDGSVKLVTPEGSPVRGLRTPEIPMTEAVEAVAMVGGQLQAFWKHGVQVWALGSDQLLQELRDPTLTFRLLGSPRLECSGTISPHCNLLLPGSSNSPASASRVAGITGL

| IC50 [nM] | Structure (SMILES) |
| --- | --- |
| 100 to 1000 | Cc1c(N2CCc3cnc(Nc4ccc(NC(=O)C5(C)COC5)nc4)nc3C2)cnc2c1NCCO2 [Example 8, 3-methyl-N-{5-[(7-{8-methyl-1H,2H,3H-pyrido[2,3-b][1,4]oxazin-7-yl}-5H,6H,7H,8H-pyrido[3,4-d]pyrimidin-2-yl)amino]pyridin-2-yl}oxetane-3-carboxamide] |
| < 100 | Cc1c(N2CCc3cnc(Nc4ccc(C(=O)N5CC[C@@H](N(C)C)C5)cc4)cc3C2)cnc2c1NCCO2 [Example 11, N-{4-[(3R)-3-(dimethylamino)pyrrolidine-1-carbonyl]phenyl}-6-{8-methyl-1H,2H,3H-pyrido[2,3-b][1,4]oxazin-7-yl}-5,6,7,8-tetrahydro-2,6-naphthyridin-3-amine] |
| 100 to 1000 | Cc1c(N2CCc3cnc(Nc4cc5n(n4)CC(=O)N(C)CC5)nc3C2)cnc2c1NCCO2 [Example 22, 6-methyl-2-[(7-{8-methyl-1H,2H,3H-pyrido[2,3-b][1,4]oxazin-7-yl}-5H,6H,7H,8H-pyrido[3,4-d]pyrimidin-2-yl)amino]-4H,5H,6H,7H,8H-pyrazolo[1,5-d][1,4]diazepin-7-one] |
| < 100 | Cc1cc(Nc2ncc3c(n2)CN(c2cnc4c(c2C)NCCO4)CC3)cnc1N(C)CCN1CCOCC1 [Example 43, N2,3-dimethyl-N5-(7-{8-methyl-1H,2H,3H-pyrido[2,3-b][1,4]oxazin-7-yl}-5H,6H,7H,8H-pyrido[3,4-d]pyrimidin-2-yl)-N2-[2-(morpholin-4-yl)ethyl]pyridine-2,5-diamine] |
| < 100 | Cc1c(N2CCc3cnc(Nc4ccnc(N5CCOCC5)c4)cc3C2)cnc2c1NCCO2 [Example 54, 6-(8-methyl-2,3-dihydro-1H-pyrido[2,3-b][1,4]oxazin-7-yl)-N-(2-morpholinopyridin-4-yl)-5,6,7,8-tetrahydro-2,6-naphthyridin-3-amine] |
| < 100 | Cc1c(N2CCc3cnc(Nc4ccc5c(c4)CCN(C)CC5)nc3C2)cnc2c1NCCO2 [Example 62, 3-methyl-N-(7-{8-methyl-1H,2H,3H-pyrido[2,3-b][1,4]oxazin-7-yl}-5H,6H,7H,8H-pyrido[3,4-d]pyrimidin-2-yl)-2,3,4,5-tetrahydro-1H-3-benzazepin-7-amine] |
| < 100 | Cc1c(N2CCc3cnc(Nc4ccc(CN5CCN(C)CC5)cc4)nc3C2)cnc2c1NCCO2 [Example 64, 7-{8-methyl-1H,2H,3H-pyrido[2,3-b][1,4]oxazin-7-yl}-N-{4-[(4-methylpiperazin-1-yl)methyl]phenyl}-5H,6H,7H,8H-pyrido[3,4-d]pyrimidin-2-amine] |
| > 1000 | Cc1c(N2CCc3cnc(NC4CCN(Cc5cnn(C)c5)CC4)nc3C2)cnc2c1NCCO2 [Example 70, N-(7-{8-methyl-1H,2H,3H-pyrido[2,3-b][1,4]oxazin-7-yl}-5H,6H,7H,8H-pyrido[3,4-d]pyrimidin-2-yl)-1-[(1-methyl-1H-pyrazol-4-yl)methyl]piperidin-4-amine] |
| < 100 | Cc1c(N2CCc3cnc(Nc4ccnc(S(C)(=O)=O)c4)nc3C2)cnc2c1NCCO2 [Example 75, 7-(8-methyl-2,3-dihydro-1H-pyrido[2,3-b][1,4]oxazin-7-yl)-N-(2-(methylsulfonyl)pyridin-4-yl)-5,6,7,8-tetrahydropyrido[3,4-d]pyrimidin-2-amine] |
| 100 to 1000 | COCc1cncc(N2CCc3cnc(Nc4ccc(C5CCOCC5)c(CO)c4)nc3C2)c1 [Example 78, (5-((7-(5-(methoxymethyl)pyridin-3-yl)-5,6,7,8-tetrahydropyrido[3,4-d]pyrimidin-2-yl)amino)-2-(tetrahydro-2H-pyran-4-yl)phenyl)methanol] |
| > 1000 | Cc1cnsc1N1CCc2cnc(Nc3cc4n(n3)CC(=O)N(C(C)C)CC4)nc2C1 [Example 86, 2-{[7-(4-methyl-1,2-thiazol-5-yl)-5H,6H,7H,8H-pyrido[3,4-d]pyrimidin-2-yl]amino}-6-(propan-2-yl)-4H,5H,6H,7H,8H-pyrazolo[1,5-d][1,4]diazepin-7-one; trifluoroacetic acid] |
| < 100 | Cc1c(N2CCc3cnc(Nc4cnc5c(c4)CN(C)CC5)nc3C2)cnc2c1NC(=O)CO2 [Example 88, 8-methyl-7-(2-((6-methyl-5,6,7,8-tetrahydro-1,6-naphthyridin-3-yl)amino)-5,8-dihydropyrido[3,4-d]pyrimidin-7(6H)-yl)-1H-pyrido[2,3-b][1,4]oxazin-2(3H)-one] |
| < 100 | Cc1c(N2CCc3cnc(Nc4cnc5c(c4)CN(C)CC5)nc3C2)cnc2c1N(C)CCO2 [Example 101, 7-(1,8-dimethyl-2,3-dihydro-1H-pyrido[2,3-b][1,4]oxazin-7-yl)-N-(6-methyl-5,6,7,8-tetrahydro-1,6-naphthyridin-3-yl)-5,6,7,8-tetrahydropyrido[3,4-d]pyrimidin-2-amine] |
| < 100 | CN1CCc2ncc(Nc3ncc4c(n3)CN(c3cnn(C)c3)CC4)cc2C1 [Example 114, 7-(1-methyl-1H-pyrazol-4-yl)-N-(6-methyl-5,6,7,8-tetrahydro-1,6-naphthyridin-3-yl)-5,6,7,8-tetrahydropyrido[3,4-d]pyrimidin-2-amine] |
| < 100 | COc1cccc(F)c1N1CCc2cnc(Nc3ccc(C4CCN(C)CC4)cc3)nc2C1 [Example 117, 7-(2-fluoro-6-methoxyphenyl)-N-(4-(1-methylpiperidin-4-yl)phenyl)-5,6,7,8-tetrahydropyrido[3,4-d]pyrimidin-2-amine] |
| 100 to 1000 | Cc1c(N2CCc3cnc(Nc4ccc(CN5CC(C)(O)C5)cc4)nc3C2)cnc2c1NCCO2 [Example 123, 3-methyl-1-(4-((7-(8-methyl-2,3-dihydro-1H-pyrido[2,3-b][1,4]oxazin-7-yl)-5,6,7,8-tetrahydropyrido[3,4-d]pyrimidin-2-yl)amino)benzyl)azetidin-3-ol] |
| 100 to 1000 | CN1CCc2ncc(Nc3ncc4c(n3)CN(c3ccccn3)CC4)cc2C1 [Example 129, 6-methyl-N-[7-(pyridin-2-yl)-5H,6H,7H,8H-pyrido[3,4-d]pyrimidin-2-yl]-5,6,7,8-tetrahydro-1,6-naphthyridin-3-amine] |
| < 100 | Cc1c(N2CCc3cnc(Nc4ccc(CCO)cc4)nc3C2)cnc2c1NCCO2 [Example 134, 2-{4-[(7-{8-methyl-1H,2H,3H-pyrido[2,3-b][1,4]oxazin-7-yl}-5H,6H,7H,8H-pyrido[3,4-d]pyrimidin-2-yl)amino]phenyl}ethan-1-ol] |
| > 1000 | CS(=O)(=O)Cc1ccc(Nc2ncc3c(n2)CN(c2cnc4cnccn24)CC3)cc1 [Example 136, 7-{imidazo[1,2-a]pyrazin-3-yl}-N-[4-(methanesulfonylmethyl)phenyl]-5H,6H,7H,8H-pyrido[3,4-d]pyrimidin-2-amine] |
| < 100 | COCCOCCS(=O)(=O)Cc1ccc(Nc2ncc3c(n2)CN(c2cnc4c(c2C)NCCO4)CC3)cc1 [Example 137, N-(4-{[2-(2-methoxyethoxy)ethanesulfonyl]methyl}phenyl)-7-{8-methyl-1H,2H,3H-pyrido[2,3-b][1,4]oxazin-7-yl}-5H,6H,7H,8H-pyrido[3,4-d]pyrimidin-2-amine] |
| < 100 | Cc1c(N2CCc3cnc(Nc4cc5n(n4)CC(=O)N(C4CC4)CC5)cc3C2)cnc2c1NCCO2 [Example 141, 6-cyclopropyl-2-[(6-{8-methyl-1H,2H,3H-pyrido[2,3-b][1,4]oxazin-7-yl}-5,6,7,8-tetrahydro-2,6-naphthyridin-3-yl)amino]-4H,5H,6H,7H,8H-pyrazolo[1,5-d][1,4]diazepin-7-one] |
| > 1000 | Cn1ccc2c(N3CCc4cnc(Nc5ccc(CS(C)(=O)=O)cc5)nc4C3)ccnc21 [Example 146, N-[4-(methanesulfonylmethyl)phenyl]-7-{1-methyl-1H-pyrrolo[2,3-b]pyridin-4-yl}-5H,6H,7H,8H-pyrido[3,4-d]pyrimidin-2-amine] |
| < 100 | Cc1cc(Nc2ncc3c(n2)CN(c2cnc4c(c2C)NCCO4)CC3)ccc1CC#N [Example 149, 2-{2-methyl-4-[(7-{8-methyl-1H,2H,3H-pyrido[2,3-b][1,4]oxazin-7-yl}-5H,6H,7H,8H-pyrido[3,4-d]pyrimidin-2-yl)amino]phenyl}acetonitrile] |
| < 100 | Clc1c(N2CCc3cnc(Nc4ccc(-c5nnc(C6CC6)o5)cc4)nc3C2)cnc2c1NCCO2 [Example 159, 7-{8-chloro-1H,2H,3H-pyrido[2,3-b][1,4]oxazin-7-yl}-N-[4-(5-cyclopropyl-1,3,4-oxadiazol-2-yl)phenyl]-5H,6H,7H,8H-pyrido[3,4-d]pyrimidin-2-amine] |
| < 100 | Cc1c(N2CCc3cnc(Nc4ccc(CS(C)(=O)=O)cc4)nc3C2)cnc2oc(=O)[nH]c12 [Example 160, 6-(2-{[4-(methanesulfonylmethyl)phenyl]amino}-5H,6H,7H,8H-pyrido[3,4-d]pyrimidin-7-yl)-7-methyl-1H,2H-[1,3]oxazolo[5,4-b]pyridin-2-one] |

| Structure (SMILES) | IC50 [nM] |
| --- | --- |
| Cc1c(N2CCc3cnc(Nc4cnc5c(c4)CN(C)CC5)nc3C2)cnc2c1OCCO2 [Example 95, 7-(8-methyl-2,3-dihydro-[1,4]dioxino[2,3-b]pyridin-7-yl)-N-(6-methyl-5,6,7,8-tetrahydro-1,6-naphthyridin-3-yl)-5,6,7,8-tetrahydropyrido[3,4-d]pyrimidin-2-amine] | < 100 |
